Results from patent US8785399B2, “Antibacterial peptides” (Spiderbiotech S.R.A., priority 2008, dated 2014).
Converted amounts (≈) assume the structure as drawn. Positions of bridges follow the written chain, without caps; N, C: chain ends. Non-standard residues stand in square brackets, D forms with d. Residues, ends and D or L forms follow the SMILES beside them. Chains are numbered I, II in the order given. Aoc = NCCCCCCCC(=O)O; Ava = NCCCCC(=O)O; βAla = NCCC(=O)O

What was measured:
[1] = test system: Pseudomonas aeruginosa ATCC 27853; test: MIC by broth microdilution, P. aeruginosa reference strain; format: cell-based; settings: ATCC 27853
Protocol: (§1) Determination of MIC. MICs were determined in MHB by the broth microdilution methodology, according to CLSI procedure (formerly NCCLS, Ref. 11) by using final bacterial inocula of 1-5×10^5 CFU/mL. Assays were performed in sterile 96-well microtiter plates with round bottom wells (Corning Costar). Plates were incubated at 37° C. and read after 20-24 h. MIC was defined as the lowest drug concentration causing complete suppression of visible bacterial growth. All compounds were dissolved in (5% v/v DMSO).
(§2) These peptides were synthesized individually, in order to assay the activity of each sequence.

[2] = test system: Klebsiella pneumoniae ATCC 10031; test: MIC by broth microdilution, K. pneumoniae reference strain; format: cell-based; settings: ATCC 10031
Protocol: as §1, §2

E. coli ATCC 25922 = test: MIC by broth microdilution, E. coli reference strain; format: cell-based, Escherichia coli; settings: ATCC 25922
Protocol: as §1
All natural aminoacids have been divided into three groups based on their chemical-physical properties. A total amount of 27 minilibraries, each one containing six peptide in equimolar amounts, were obtained and assayed against E. coli ATCC 25922 as reference strain. MIC (Minimum Inhibitory Concentration) is defined as the lowest concentration inhibiting 100% of visible growth.

[3] = test system: Staphylococcus aureus ATCC 25923
Protocol: as §1, §2

| Compound | MIC (ug/mL) P. aeruginosa [1] [µg/mL] | MIC (ug/mL) K. pneumoniae [2] [µg/mL] | MIC (ug/mL) E. coli (E. coli ATCC 25922) [µg/mL] | MIC (ug/mL) S. aureus [3] [µg/mL] |
| --- | --- | --- | --- | --- |
| CC[C@H](C)[C@H](NC(=O)[C@H](CCCCN)NC(=O)[C@H](CCCCN)NC(=O)[C@H](Cc1c[nH]c2ccccc12)NC(=O)CCCCCCCN)C(=O)N[C@@H](CCCNC(=N)N)C(=O)N[C@H](C(=O)N[C@@H](CCCNC(=N)N)C(=O)N[C@@H](CC(C)C)C(=O)N[C@@H](CO)C(=O)N[C@@H](C)C(N)=O)C(C)C [ID15, H-8-Aoa-W-KKIRVRLSA-NH2] (H-[Aoc]WKKIRVRLSA-NH2) | >64 | >64 | 32 (≈ 22.9 µM) |  |
| CC[C@H](C)[C@H](NC(=O)[C@H](CCCCN)NC(=O)[C@H](Cc1c[nH]c2ccccc12)NC(=O)[C@H](CCC(N)=O)NC(=O)CCCCCCCN)C(=O)N[C@@H](CCCNC(=N)N)C(=O)N[C@H](C(=O)N[C@@H](CCCNC(=N)N)C(=O)N[C@@H](CC(C)C)C(=O)N[C@@H](CO)C(=O)N[C@@H](C)C(N)=O)C(C)C [ID16, H-8-Aoa-Q-W-KIRVRLSA-NH2] (H-[Aoc]QWKIRVRLSA-NH2) | >64 | >64 | 32 (≈ 22.9 µM) |  |
| CC[C@H](C)[C@H](NC(=O)[C@H](CCCCN)NC(=O)[C@H](CCCCN)NC(=O)[C@H](CCC(N)=O)NC(=O)CCCCCCCN)C(=O)N[C@@H](CCCNC(=N)N)C(=O)N[C@H](C(=O)N[C@@H](CCCNC(=N)N)C(=O)N[C@@H](CC(C)C)C(=O)N[C@@H](CO)C(=O)N[C@@H](C)C(N)=O)C(C)C [ID17, H-8-Aoa-QKKIRVRLSA-NH2] (H-[Aoc]QKKIRVRLSA-NH2) | >64 | >64 | 64 (≈ 47.8 µM) |  |
| CC[C@H](C)[C@H](NC(=O)[C@H](CCCCN)NC(=O)[C@H](Cc1c[nH]c2ccccc12)NC(=O)[C@H](CCC(N)=O)NC(=O)CN)C(=O)N[C@@H](CCCNC(=N)N)C(=O)N[C@H](C(=O)N[C@@H](CCCNC(=N)N)C(=O)N[C@@H](CC(C)C)C(=O)N[C@@H](CO)C(=O)N[C@@H](C)C(=O)NCCCC[C@H](NC(=O)[C@H](C)NC(=O)[C@H](CO)NC(=O)[C@H](CC(C)C)NC(=O)[C@H](CCCNC(=N)N)NC(=O)[C@@H](NC(=O)[C@H](CCCNC(=N)N)NC(=O)[C@@H](NC(=O)[C@H](CCCCN)NC(=O)[C@H](Cc1c[nH]c2ccccc12)NC(=O)[C@H](CCC(N)=O)NC(=O)CN)[C@@H](C)CC)C(C)C)C(=O)NCCC(N)=O)C(C)C [ID19, (H-G-Q-W-KIRVRLSA)2-Lys-β-Ala-NH2] (I: H-GQWKIRVRLSAK[βAla]-NH2 / II: H-GQWKIRVRLSA; amide I:12-II:C) | >64 | >64 | 16 (≈ 5.7 µM) |  |
| CC[C@H](C)[C@H](NC(=O)[C@H](CCCCN)NC(=O)[C@H](CCCCN)NC(=O)[C@H](CCC(N)=O)NC(=O)CN)C(=O)N[C@@H](CCCNC(=N)N)C(=O)N[C@H](C(=O)N[C@@H](CCCNC(=N)N)C(=O)N[C@@H](CC(C)C)C(=O)N[C@@H](CO)C(=O)N[C@@H](C)C(=O)NCCCC[C@H](NC(=O)[C@H](C)NC(=O)[C@H](CO)NC(=O)[C@H](CC(C)C)NC(=O)[C@H](CCCNC(=N)N)NC(=O)[C@@H](NC(=O)[C@H](CCCNC(=N)N)NC(=O)[C@@H](NC(=O)[C@H](CCCCN)NC(=O)[C@H](CCCCN)NC(=O)[C@H](CCC(N)=O)NC(=O)CN)[C@@H](C)CC)C(C)C)C(=O)NCCC(N)=O)C(C)C [ID20, (H-G-QKKIRVRLSA)2-Lys-β-Ala-NH2] (I: H-GQKKIRVRLSAK[βAla]-NH2 / II: H-GQKKIRVRLSA; amide I:12-II:C) | >64 | >64 | 16 to 32 |  |
| CC[C@H](C)[C@H](NC(=O)[C@H](CCCCN)NC(=O)[C@H](CCCCN)NC(=O)[C@H](Cc1c[nH]c2ccccc12)NC(=O)CCCCN)C(=O)N[C@@H](CCCNC(=N)N)C(=O)N[C@H](C(=O)N[C@@H](CCCNC(=N)N)C(=O)N[C@@H](CC(C)C)C(=O)N[C@@H](CO)C(=O)N[C@@H](C)C(=O)NCCCC[C@H](NC(=O)[C@H](C)NC(=O)[C@H](CO)NC(=O)[C@H](CC(C)C)NC(=O)[C@H](CCCNC(=N)N)NC(=O)[C@@H](NC(=O)[C@H](CCCNC(=N)N)NC(=O)[C@@H](NC(=O)[C@H](CCCCN)NC(=O)[C@H](CCCCN)NC(=O)[C@H](Cc1c[nH]c2ccccc12)NC(=O)CCCCN)[C@@H](C)CC)C(C)C)C(=O)NCCC(N)=O)C(C)C [ID21, (H-5-Ava-W-KKIRVRLSA)2-Lys-β-Ala-NH2] (I: H-[Ava]WKKIRVRLSAK[βAla]-NH2 / II: H-[Ava]WKKIRVRLSA; amide I:12-II:C) | 64 (≈ 22.1 µM) | 64 (≈ 22.1 µM) | 8 to 16 |  |
| CC[C@H](C)[C@H](NC(=O)[C@H](CCCCN)NC(=O)[C@H](Cc1c[nH]c2ccccc12)NC(=O)[C@H](CCC(N)=O)NC(=O)CCCCN)C(=O)N[C@@H](CCCNC(=N)N)C(=O)N[C@H](C(=O)N[C@@H](CCCNC(=N)N)C(=O)N[C@@H](CC(C)C)C(=O)N[C@@H](CO)C(=O)N[C@@H](C)C(=O)NCCCC[C@H](NC(=O)[C@H](C)NC(=O)[C@H](CO)NC(=O)[C@H](CC(C)C)NC(=O)[C@H](CCCNC(=N)N)NC(=O)[C@@H](NC(=O)[C@H](CCCNC(=N)N)NC(=O)[C@@H](NC(=O)[C@H](CCCCN)NC(=O)[C@H](Cc1c[nH]c2ccccc12)NC(=O)[C@H](CCC(N)=O)NC(=O)CCCCN)[C@@H](C)CC)C(C)C)C(=O)NCCC(N)=O)C(C)C [ID22, (H-5-Ava-Q-W-KIRVRLSA)2-Lys-β-Ala-NH2] (I: H-[Ava]QWKIRVRLSAK[βAla]-NH2 / II: H-[Ava]QWKIRVRLSA; amide I:12-II:C) | >64 | >64 | 16 (≈ 5.53 µM) |  |
| CC[C@H](C)[C@H](NC(=O)[C@H](CCCCN)NC(=O)[C@H](CCCCN)NC(=O)[C@H](CCC(N)=O)NC(=O)CCCCCCCN)C(=O)N[C@@H](CCCNC(=N)N)C(=O)N[C@H](C(=O)N[C@@H](CCCNC(=N)N)C(=O)N[C@@H](CC(C)C)C(=O)N[C@@H](CO)C(=O)N[C@@H](C)C(=O)NCCCC[C@H](NC(=O)[C@H](C)NC(=O)[C@H](CO)NC(=O)[C@H](CC(C)C)NC(=O)[C@H](CCCNC(=N)N)NC(=O)[C@@H](NC(=O)[C@H](CCCNC(=N)N)NC(=O)[C@@H](NC(=O)[C@H](CCCCN)NC(=O)[C@H](CCCCN)NC(=O)[C@H](CCC(N)=O)NC(=O)CCCCCCCN)[C@@H](C)CC)C(C)C)C(=O)NCCC(N)=O)C(C)C [ID23, (H-8-Aoa-OKKIRVRLSA)2-Lys-β-Ala-NH2] (I: H-[Aoc]QKKIRVRLSAK[βAla]-NH2 / II: H-[Aoc]QKKIRVRLSA; amide I:12-II:C) | >64 | >64 | 32 (≈ 11.2 µM) |  |
| H-FKKIRVRLSA-OH [ID2, H-F-KKIRVRLSA-OH] | 256 | 512 | 256 | 512 |
| H-GQWKIRVRLSA-OH [ID14, H-G-Q-W-KIRVRLSA-OH] | 64 | >512 | 64 | >512 |
| H-IKKIRVRLSA-OH [ID3, H-I-KKIRVRLSA-OH] | 256 | 512 | 256 | 512 |
| H-LKKIRVRLSA-OH [ID4, H-L-KKIRVRLSA-OH] | 256 | 512 | 256 | >512 |
| H-QFKIRVRLSA-OH [ID8, H-Q-F-KIRVRLSA-OH] | 128 | >512 | 128 | >512 |
| H-QIKIRVRLSA-OH [ID9, H-Q-I-KIRVRLSA-OH] | >512 | 512 | 512 | >512 |
| H-QKKIRVRLSA-OH [ID1, H-QKKIRVRLSA-OH, reference compound] | >512 | >512 |  |  |
| H-QLKIRVRLSA-OH [ID10, H-Q-L-KIRVRLSA-OH] | 128 | >512 | 128 | >512 |
| H-QVKIRVRLSA-OH [ID11, H-Q-V-KIRVRLSA-OH] | 256 | >512 | 256 | >512 |
| H-QWKIRVRLSA-OH [ID12, H-Q-W-KIRVRLSA-OH] | 64 | >512 | 64 | >512 |
| H-QYKIRVRLSA-OH [ID13, H-Q-Y-KIRVRLSA-OH] | >512 | >512 | >256 | >512 |
| H-VKKIRVRLSA-OH [ID5, H-V-KKIRVRLSA-OH] | 512 | >512 | 512 | 512 |
| H-WKKIRVRLSA-OH [ID6, H-W-KKIRVRLSA-OH] | 128 | 256 | 64 to 128 | 512 |
